Laboratory results as given in patent US20230144436A1, “MUSCLE TARGETING COMPLEXES AND USES THEREOF FOR TREATING MYOTONIC DYSTROPHY” (Dyne Therapeutics, Inc., priority 2020, published 2023).

Test system: DMPK
Test: DMPK knockdown by transfected antisense oligonucleotides in DM1 C15 myotubes at 0.5 nM and 50 nM
Format: cell-based
Conditions: 72 hours; for Normalized DMPK Remaining: relative to vehicle control = 1.00
Outline: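 Seven-day-differentiated DM1 C15 myotubes transfected (Lipofectamine MessengerMax) with each oligonucleotide at 0.5 nM or 50 nM final, biological triplicates. After 72 h, DMPK mRNA quantified by qPCR, expressed relative to vehicle-only transfection set to 1.00.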

[1] = 0.5 nM oligonucleotide, qPCR, relative to vehicle control
[2] = 50 nM oligonucleotide, qPCR, relative to vehicle control

Row | Substance | Percent DMPK Reduction [1] [%] | Normalized DMPK Remaining (0.5 nM oligonucleotide, qPCR) | Percent DMPK Reduction [2] [%] | Normalized DMPK Remaining (50 nM oligonucleotide, qPCR) | Percent DMPK Reduction (0.5 nM oligonucleotide) [%] | Normalized DMPK Remaining (0.5 nM oligonucleotide) | Percent DMPK Reduction (50 nM oligonucleotide) [%] | Normalized DMPK Remaining (50 nM oligonucleotide)
1 | 309 (CACAGCGGUCCAGCAGGAUG; chemistry not given here) [compound 309] | 6.62 | 0.93 | 59.58 | 0.40 |  |  |  | 
2 | 427 (UUGUUCAUGAUCUUCAUGGC; chemistry not given here) [compound 427] |  |  |  |  | 14.13 | 0.86 | 45.23 | 0.55
3 | 266 (AAUACUCCAUGACCAGGUAC; chemistry not given here) [compound 266] | 28.86 | 0.71 | 52.07 | 0.48 |  |  |  | 
4 | 389 (CCGAGAGCAGCGCAAGUGAG; chemistry not given here) [compound 389] |  |  |  |  | 16.13 | 0.84 | 40.93 | 0.59
5 | 249 (AAACUUGCUCAGCAGUGUCA; chemistry not given here) [compound 249] | 30.85 | 0.69 | 50.69 | 0.49 |  |  |  | 
6 | 464 (UCCUUGUAGUGGACGAUCUU; chemistry not given here) [compound 464] |  |  |  |  | 12.96 | 0.87 | 84.87 | 0.15
7 | 408 (UCGGGUUUGAUGUCCCUGUG; chemistry not given here) [compound 408] |  |  |  |  | 22.49 | 0.78 | 57.16 | 0.43
8 | 356 (CUGCCUGCAGCAACUCCAUC; chemistry not given here) [compound 356] | 23.10 | 0.77 | 46.69 | 0.53 |  |  |  | 
9 | 353 (GGCGAAUACACCCAGCGCCC; chemistry not given here) [compound 353] | 19.77 | 0.80 | 68.72 | 0.31 |  |  |  | 
10 | 330 (CCAGCGCCCACCAGUCACAC; chemistry not given here) [compound 330] | 36.17 | 0.64 | 70.96 | 0.29 |  |  |  | 
11 | 395 (AAGGGCGUCUGCCCAUAGAA; chemistry not given here) [compound 395] |  |  |  |  | 13.15 | 0.87 | 34.56 | 0.65
12 | 247 (GGGCCCGGAUCACAGGACUG; chemistry not given here) [compound 247] | 57.97 | 0.42 | 61.96 | 0.38 |  |  |  | 
13 | 322 (GCUCAGGCUCUGCCGGGUGA; chemistry not given here) [compound 322] | 25.69 | 0.74 | 60.71 | 0.39 |  |  |  | 
14 | 357 (CCUCAGCCUCUGCCGCAGGG; chemistry not given here) [compound 357] | 10.87 | 0.89 | 55.22 | 0.45 |  |  |  | 
15 | 441 (CAAUCUCCGCCAGGUAGAAG; chemistry not given here) [compound 441] |  |  |  |  | 15.95 | 0.84 | 49.25 | 0.51
16 | 455 (UCCAGUUCCAUGGGUGUGGG; chemistry not given here) [compound 455] |  |  |  |  | 15.66 | 0.84 | 78.48 | 0.22

Row | Substance | Percent DMPK Reduction [1] [%] | Normalized DMPK Remaining (0.5 nM oligonucleotide, qPCR) | Percent DMPK Reduction [2] [%] | Normalized DMPK Remaining (50 nM oligonucleotide, qPCR) | Percent DMPK Reduction (0.5 nM oligonucleotide) [%] | Normalized DMPK Remaining (0.5 nM oligonucleotide) | Percent DMPK Reduction (50 nM oligonucleotide) [%] | Normalized DMPK Remaining (50 nM oligonucleotide)
17 | 364 (AGCGCCCACCAGUCACACUC; chemistry not given here) [compound 364] | 30.36 | 0.70 | 63.67 | 0.36 |  |  |  | 
18 | 265 (GUCGGGUUUGAUGUCCCUGU; chemistry not given here) [compound 265] | 28.89 | 0.71 | 64.15 | 0.36 |  |  |  | 
19 | 367 (GAUGUCCCUGUGCACGUAGC; chemistry not given here) [compound 367] | 18.99 | 0.81 | 62.46 | 0.38 |  |  |  | 
20 | 372 (UGGCCAUGACAAUCUCCGCC; chemistry not given here) [compound 372] | 30.46 | 0.70 | 72.55 | 0.27 |  |  |  | 
21 | 469 (CAGGGAAAGCGCCUCCGAUA; chemistry not given here) [compound 469] |  |  |  |  | 11.10 | 0.89 | 91.59 | 0.08
22 | 431 (GGAGCAGGGAAAGCGCCUCC; chemistry not given here) [compound 431] |  |  |  |  | 21.46 | 0.79 | 88.35 | 0.12
23 | 433 (GCGGAUGGCCUCCAUCUCCC; chemistry not given here) [compound 433] |  |  |  |  | 21.25 | 0.79 | 71.77 | 0.28
24 | 384 (UGGACGAUCUUGCCAUAGGU; chemistry not given here) [compound 384] |  |  |  |  | 19.20 | 0.81 | 42.52 | 0.57
25 | 370 (ACUUGUUCAUGAUCUUCAUG; chemistry not given here) [compound 370] | 25.47 | 0.75 | 52.89 | 0.47 |  |  |  | 
26 | 448 (UUGGGCAGAUGGAGGGCCUU; chemistry not given here) [compound 448] |  |  |  |  | 19.08 | 0.81 | 78.39 | 0.22
27 | 340 (GUACAGGUAGUUCUCAUCCU; chemistry not given here) [compound 340] | 31.52 | 0.68 | 65.57 | 0.34 |  |  |  | 
28 | 405 (CUUUGGGCAGAUGGAGGGCC; chemistry not given here) [compound 405] |  |  |  |  | 28.06 | 0.72 | 67.50 | 0.33
29 | 434 (UUUCAUAGGCGAAUACACCC; chemistry not given here) [compound 434] |  |  |  |  | 5.56 | 0.94 | 53.28 | 0.47
30 | 291 (AUACUCCAUGACCAGGUACA; chemistry not given here) [compound 291] | 23.07 | 0.77 | 56.84 | 0.43 |  |  |  | 
31 | 413 (GACAGACAAUAAAUACCGAG; chemistry not given here) [compound 413] |  |  |  |  | 18.26 | 0.82 | 38.07 | 0.62
32 | 327 (CCCAAACUUGCUCAGCAGUG; chemistry not given here) [compound 327] | 37.02 | 0.63 | 61.78 | 0.38 |  |  |  | 
